# Measured values published in the supplement of paper PMC10307832.
# How the values were obtained:
# Experiment in all cases: relative viability (nuclei count vs DMSO), 5 days (fraction); higher = more cells survive
# [1] = compound: Cn1cncc1[C@@](N)(c1ccc(Cl)cc1)c1ccc2c(c1)c(-c1cccc(Cl)c1)cc(=O)n2C [Tipifarnib]
# Method in brief: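 Lung cancer cell lines in 1536-well plates were kept overnight at 37 °C, then pinned with five library-drug doses (not always all listed) spaced by √10 on vehicle-anchored plates. After 5 days without medium change, cells were fixed, permeabilised and Hoechst-stained in one step, imaged at 4×, and nuclei were counted with MetaXpress. Viability is treated-well nuclei divided by vehicle-well nuclei, taken as the median over plates. Plates passed only with control CV below 25% and at least one doubling.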
# [2] = compound: Cn1cncc1[C@@](N)(c1ccc(Cl)cc1)c1ccc2c(c1)c(-c1cccc(Cl)c1)cc(=O)n2C [Tipifarnib] + CC(C)C[C@H](NC(=O)[C@H](Cc1ccccc1)NC(=O)c1cnccn1)B(O)O [Bortezomib] (partner 0.002 µM)
# Method in brief: (§1)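 One day after seeding in 1536-well plates, lung cancer cell lines were dosed by pin tool. Dosing was either single-drug or a fixed anchor-drug dose plus five library-drug doses (not always all listed) in √10 steps. After 5 days, nuclei were stained in one fix-and-stain step and counted on 4× images, and relative viability is the nuclei count of treated wells over that of vehicle wells, given as the median of duplicate plates.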
# [3] = compound: Cn1cncc1[C@@](N)(c1ccc(Cl)cc1)c1ccc2c(c1)c(-c1cccc(Cl)c1)cc(=O)n2C [Tipifarnib] + O=C(c1cc(Cc2n[nH]c(=O)c3ccccc23)ccc1F)N1CCN(C(=O)C2CC2)CC1 [Olaparib] (partner 8 µM)
# Method in brief: as §1
# [4] = compound: Cn1cncc1[C@@](N)(c1ccc(Cl)cc1)c1ccc2c(c1)c(-c1cccc(Cl)c1)cc(=O)n2C [Tipifarnib] + CS(=O)(=O)CCNCc1ccc(-c2ccc3ncnc(Nc4ccc(OCc5cccc(F)c5)c(Cl)c4)c3c2)o1 [Lapatinib] (partner 2 µM)
# Method in brief: as §1
# [5] = compound: Cn1cncc1[C@@](N)(c1ccc(Cl)cc1)c1ccc2c(c1)c(-c1cccc(Cl)c1)cc(=O)n2C [Tipifarnib] + COc1cc2c(Oc3ccc(NC(=O)C4(C(=O)Nc5ccc(F)cc5)CC4)cc3F)ccnc2cc1OCCCN1CCOCC1 [Foretinib] (partner 0.25 µM)
# Method in brief: as §1
# [6] = compound: Cn1cncc1[C@@](N)(c1ccc(Cl)cc1)c1ccc2c(c1)c(-c1cccc(Cl)c1)cc(=O)n2C [Tipifarnib] + C[C@@H](Oc1cc(-c2cnn(C3CCNCC3)c2)cnc1N)c1c(Cl)ccc(F)c1Cl [Crizotinib] (partner 1 µM)
# Method in brief: as §1
# [7] = compound: Cn1cncc1[C@@](N)(c1ccc(Cl)cc1)c1ccc2c(c1)c(-c1cccc(Cl)c1)cc(=O)n2C [Tipifarnib] + CC1(C)CCC(c2ccc(Cl)cc2)=C(CN2CCN(c3ccc(C(=O)NS(=O)(=O)c4ccc(N[C@H](CCN5CCOCC5)CSc5ccccc5)c(S(=O)(=O)C(F)(F)F)c4)cc3)CC2)C1 [Navitoclax] (partner 0.5 µM)
# Method in brief: as §1
# [8] = compound: Cn1cncc1[C@@](N)(c1ccc(Cl)cc1)c1ccc2c(c1)c(-c1cccc(Cl)c1)cc(=O)n2C [Tipifarnib] + C[C@]1(O)C[C@@H](c2nc(-c3ccc4ccc(-c5ccccc5)nc4c3)c3c(N)nccn32)C1 [Linsitinib] (partner 1 µM)
# Method in brief: as §1
# [9] = compound: Cn1cncc1[C@@](N)(c1ccc(Cl)cc1)c1ccc2c(c1)c(-c1cccc(Cl)c1)cc(=O)n2C [Tipifarnib] + Cc1nc(NC(=O)N2CCC[C@H]2C(N)=O)sc1-c1ccnc(C(C)(C)C(F)(F)F)c1 [Alpelisib] (partner 2 µM)
# Method in brief: as §1
# [10] = compound: Cn1cncc1[C@@](N)(c1ccc(Cl)cc1)c1ccc2c(c1)c(-c1cccc(Cl)c1)cc(=O)n2C [Tipifarnib] + CS(=O)(=O)N1CCN(Cc2cc3nc(-c4cccc5[nH]ncc45)nc(N4CCOCC4)c3s2)CC1 [Pictilisib] (partner 1 µM)
# Method in brief: as §1
# [11] = compound: Cn1cncc1[C@@](N)(c1ccc(Cl)cc1)c1ccc2c(c1)c(-c1cccc(Cl)c1)cc(=O)n2C [Tipifarnib] + N=C(N)NC(=N)NCCc1ccccc1 [Phenformin] (partner 250 µM)
# Method in brief: as §1
# [12] = compound: Cn1cncc1[C@@](N)(c1ccc(Cl)cc1)c1ccc2c(c1)c(-c1cccc(Cl)c1)cc(=O)n2C [Tipifarnib] + Nc1ncn([C@H]2C[C@H](O)[C@@H](CO)O2)c(=O)n1 [Decitabine] (partner 2 µM)
# Method in brief: as §1
cell line,measurement,setting,value
Calu-6,relative viability,[1]; 0.01 µM,0.931
same,relative viability,[1]; 0.03162 µM,0.767
same,relative viability,[1]; 0.1 µM,0.688
same,relative viability,[1]; 0.3162 µM,0.572
same,relative viability,[1]; 1 µM,0.579
same,relative viability,[2]; first compound 0.01 µM,0.928
same,relative viability,[2]; first compound 0.03162 µM,0.662
same,relative viability,[2]; first compound 0.1 µM,0.634
same,relative viability,[2]; first compound 0.3162 µM,0.529
same,relative viability,[2]; first compound 1 µM,0.544
same,relative viability,[3]; first compound 0.01 µM,0.532
same,relative viability,[3]; first compound 0.03162 µM,0.498
same,relative viability,[3]; first compound 0.1 µM,0.514
same,relative viability,[3]; first compound 0.3162 µM,0.502
same,relative viability,[3]; first compound 1 µM,0.466
same,relative viability,[4]; first compound 0.01 µM,1.02
same,relative viability,[4]; first compound 0.03162 µM,0.801
same,relative viability,[4]; first compound 0.1 µM,0.771
same,relative viability,[4]; first compound 0.3162 µM,0.599
same,relative viability,[4]; first compound 1 µM,0.535
same,relative viability,[5]; first compound 0.01 µM,0.886
same,relative viability,[5]; first compound 0.03162 µM,0.62
same,relative viability,[5]; first compound 0.1 µM,0.698
same,relative viability,[5]; first compound 0.3162 µM,0.518
same,relative viability,[5]; first compound 1 µM,0.424
same,relative viability,[6]; first compound 0.01 µM,0.694
same,relative viability,[6]; first compound 0.03162 µM,0.566
same,relative viability,[6]; first compound 0.1 µM,0.452
same,relative viability,[6]; first compound 0.3162 µM,0.434
same,relative viability,[6]; first compound 1 µM,0.344
same,relative viability,[7]; first compound 0.01 µM,0.538
same,relative viability,[7]; first compound 0.03162 µM,0.35
same,relative viability,[7]; first compound 0.1 µM,0.196
same,relative viability,[7]; first compound 0.3162 µM,0.194
same,relative viability,[7]; first compound 1 µM,0.2
same,relative viability,[8]; first compound 0.01 µM,0.941
same,relative viability,[8]; first compound 0.03162 µM,0.679
same,relative viability,[8]; first compound 0.1 µM,0.645
same,relative viability,[8]; first compound 0.3162 µM,0.515
same,relative viability,[8]; first compound 1 µM,0.444
same,relative viability,[9]; first compound 0.01 µM,0.831
same,relative viability,[9]; first compound 0.03162 µM,0.667
same,relative viability,[9]; first compound 0.1 µM,0.609
same,relative viability,[9]; first compound 0.3162 µM,0.412
same,relative viability,[9]; first compound 1 µM,0.505
same,relative viability,[10]; first compound 0.01 µM,0.891
same,relative viability,[10]; first compound 0.03162 µM,0.641
same,relative viability,[10]; first compound 0.1 µM,0.555
same,relative viability,[10]; first compound 0.3162 µM,0.442
same,relative viability,[10]; first compound 1 µM,0.386
A549,relative viability,[1]; 0.01 µM,1.01
same,relative viability,[1]; 0.03162 µM,0.853
same,relative viability,[1]; 0.1 µM,0.563
same,relative viability,[1]; 0.3162 µM,0.417
same,relative viability,[1]; 1 µM,0.251
same,relative viability,[3]; first compound 0.01 µM,0.265
same,relative viability,[3]; first compound 0.03162 µM,0.276
same,relative viability,[3]; first compound 0.1 µM,0.245
same,relative viability,[3]; first compound 0.3162 µM,0.219
same,relative viability,[3]; first compound 1 µM,0.109
same,relative viability,[4]; first compound 0.01 µM,1.09
same,relative viability,[4]; first compound 0.03162 µM,0.793
same,relative viability,[4]; first compound 0.1 µM,0.643
same,relative viability,[4]; first compound 0.3162 µM,0.439
same,relative viability,[4]; first compound 1 µM,0.302
same,relative viability,[5]; first compound 0.01 µM,1.03
same,relative viability,[5]; first compound 0.03162 µM,0.843
same,relative viability,[5]; first compound 0.1 µM,0.386
same,relative viability,[5]; first compound 0.3162 µM,0.296
same,relative viability,[5]; first compound 1 µM,0.366
same,relative viability,[6]; first compound 0.01 µM,0.499
same,relative viability,[6]; first compound 0.03162 µM,0.313
same,relative viability,[6]; first compound 0.1 µM,0.238
same,relative viability,[6]; first compound 0.3162 µM,0.155
same,relative viability,[6]; first compound 1 µM,0.121
same,relative viability,[11]; first compound 0.01 µM,0.181
same,relative viability,[11]; first compound 0.03162 µM,0.116
same,relative viability,[11]; first compound 0.1 µM,0.108
same,relative viability,[11]; first compound 0.3162 µM,0.0861
same,relative viability,[11]; first compound 1 µM,0.0622
same,relative viability,[7]; first compound 0.01 µM,1.18
same,relative viability,[7]; first compound 0.03162 µM,0.981
same,relative viability,[7]; first compound 0.1 µM,0.678
same,relative viability,[7]; first compound 0.3162 µM,0.531
same,relative viability,[7]; first compound 1 µM,0.341
same,relative viability,[8]; first compound 0.01 µM,0.707
same,relative viability,[8]; first compound 0.03162 µM,0.596
same,relative viability,[8]; first compound 0.1 µM,0.49
same,relative viability,[8]; first compound 0.3162 µM,0.325
same,relative viability,[8]; first compound 1 µM,0.233
same,relative viability,[12]; first compound 0.01 µM,0.243
same,relative viability,[12]; first compound 0.03162 µM,0.32
same,relative viability,[12]; first compound 0.1 µM,0.143
same,relative viability,[12]; first compound 0.3162 µM,0.124
same,relative viability,[12]; first compound 1 µM,0.0674
same,relative viability,[9]; first compound 0.01 µM,0.759
same,relative viability,[9]; first compound 0.03162 µM,0.649
same,relative viability,[9]; first compound 0.1 µM,0.398
same,relative viability,[9]; first compound 0.3162 µM,0.346
same,relative viability,[9]; first compound 1 µM,0.283
same,relative viability,[10]; first compound 0.01 µM,0.53
same,relative viability,[10]; first compound 0.03162 µM,0.44
same,relative viability,[10]; first compound 0.1 µM,0.387
same,relative viability,[10]; first compound 0.3162 µM,0.256
same,relative viability,[10]; first compound 1 µM,0.22
